These are literature values, as cited in patent US11324828B2, “Hydrogel polymeric compositions and methods” (Incept, LLC, priority 2007, dated 2022).

Read-outs that look alike come from different tables or passages of the source.

Assay in data set [1]: not given
This is another data set of the same source.

For the compound `CCCCN1CCCCC1C(=O)Nc1c(C)cccc1C` (stereo not drawn) [Bupivacaine], the water solubility entry is listed as “about 86 mg/L”.

As to `CCc1cccc2c3c([nH]c12)C(CC)(CC(=O)O)OCC3` (stereo not drawn) [Etodolac], the Solubility result in data set [1] (in water) is listed as “Insoluble in water”.

Turning to `O=C(O)Cc1ccccc1Nc1c(Cl)cccc1Cl` [Diclofenac Sodium], the water solubility entry is listed as “about 1113 mg/L”.

Consider `CC(C(=O)[O][Ca][O]C(=O)C(C)c1cccc(Oc2ccccc2)c1)c1cccc(Oc2ccccc2)c1` (stereo not drawn) [Fenoprofen Calcium], for which, in data set [1] (in water), the Solubility result was “Slightly soluble in water”.

With `NC(=O)Cc1cccc(C(=O)c2ccccc2)c1N` [Nepafenac], the Solubility in data set [1] (no pH or medium printed) is <1 mg/ml (The drug is available as 0.1% suspension).

As for `Cc1ccc(Cl)c(Nc2ccccc2C(=O)[O-])c1Cl.[Na+]` [Meclofenamate Sodium], in data set [1] (@ pH 7.2), the Solubility is given as <50 μg/mL @ pH 7.2 50 mg/mL @ pH 9.0.
